Source: US20230414575A1, “MK2 ACTIVATING COMPOUNDS FOR USE IN TREATING VASCULAR LEAK AND ENDOTHELIAL BARRIER DISORDERS” (Akttyva Therapeutics, Inc., priority 2020, published 2023)

How the values were obtained:
[1] = target: T1, MK2 (Homo sapiens, UniProt P49137); assay: ELISA MK2 cell-based activity assay (phospho-HSP-27), Malme-3M cells; conditions: for Ratio to Control / Pho-HSP27: Malme-3M cells, compound 20 μM, 30 minutes, 37° C.; for Pho-HSP27: phospho-HSP27 ELISA; for response in phospho-HSP27 ELISA, overall ranking: overall statement on compounds tested at 20 μM (Malme-3M and RMVEC cells)
T1 construct: endogenous in cells; host or cells: Malme-3M
Protocol: (§1) The MK2 activator candidates, identified using the artificial intelligence (AI)-assisted docking approach, were tested in activity assays for lead selection against the MK2 target. MK2 activation was assessed using (a) a cell-based assay using rat microvascular endothelial cells (RMVEC) and (b) human cancer skin fibroblast cells (Malme-3M). In both assays, an Enzyme-linked ImmunoSorbent Assay (ELISA) technique was used to measure (HSP-27) phosphorylation (DYC2314-2, R&D Systems). Both cell lines were grown to confluency in a 96-well tissue culture plate and treated at 37° C. for 30 minutes with the test compounds at concentrations of 20 μM. The cells were subsequently lysed with a lysis solution containing 0.5% Triton X-100 and anti-proteolysis agents. The resulting lysates were then loaded onto ELISA plates coated with anti-rat phospho-HSP27. After incubation and washing, the plates were treated with an horseradish peroxidase (HRP)-conjugated anti-phospho-HSP27 secondary antibody and then measured for chemiluminescence. Higher activity compounds, acting on MK2, induced higher levels of HSP-27 phosphorylation, as measured by the ELISA.

[2] = target: T2, MK2 (Rattus norvegicus, UniProt Q80ZF4); assay: ELISA MK2 cell-based activity assay (phospho-HSP-27), RMVEC cells; conditions: compound 20 μM, 30 minutes, 37° C.; for Average Response HSP27: phospho-HSP27 ELISA
T2 construct: endogenous in cells; host or cells: rat microvascular endothelial cells (RMVEC)
Protocol: as §1

[3] = target: T2, MK2; assay: Western blot of HSP-27 phosphorylation in rat microvascular endothelial cells; type: cell-based; conditions: 20 μM, 30 minutes, 37° C., of five compounds tested
Protocol: In order to assess the functional activity of the putative MK2 binding activators, a series of these compounds (i.e., Leflunomide, Netupitant, Paliperidone, Lomitapide, and Perospirone) were analyzed by Western blot analysis. Rat microvascular endothelial cells were grown to confluency in 35 mm tissue culture dishes. The cells were treated with or without the putative MK2 binding activators at 20 μM concentration for 30 minutes at 37° C. As a positive control, one of the cell dishes was exposed to UV light for ca. 10 minutes. […] The membrane was washed, treated with a chemiluminescence substrate, and digitally imaged followed by quantification by densitometry. The intensity of detected signal was proportional to the MK2 activation potency of the tested compound.
Western blot results from the compounds analyzed by the above-described method are provided in FIG. 1 and graphically as a histogram plot in FIG. 2, after normalization for HSP-27 signal.
The two bands seen in each lane of the blots represent monomeric and dimeric forms of both phosphorylated and unphosphorylated HSP-27. The intensity of the bands was quantified by densitometry and then each raw readout was normalized by the signal intensity of unphosphorylated HSP-27, in order to correct for any differences in lysate load across the various treatment conditions.

T1 sequence (P49137 whole entry): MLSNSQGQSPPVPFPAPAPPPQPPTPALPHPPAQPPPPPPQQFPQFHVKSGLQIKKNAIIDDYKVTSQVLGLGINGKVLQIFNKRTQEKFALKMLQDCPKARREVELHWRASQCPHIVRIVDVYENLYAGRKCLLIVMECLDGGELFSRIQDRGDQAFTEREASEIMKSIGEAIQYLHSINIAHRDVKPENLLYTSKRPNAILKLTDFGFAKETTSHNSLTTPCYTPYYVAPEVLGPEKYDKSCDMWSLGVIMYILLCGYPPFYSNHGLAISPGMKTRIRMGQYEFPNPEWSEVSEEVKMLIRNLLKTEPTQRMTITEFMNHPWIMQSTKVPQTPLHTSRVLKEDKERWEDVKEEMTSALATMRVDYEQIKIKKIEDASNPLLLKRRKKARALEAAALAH
T2 sequence (Q80ZF4 1-386): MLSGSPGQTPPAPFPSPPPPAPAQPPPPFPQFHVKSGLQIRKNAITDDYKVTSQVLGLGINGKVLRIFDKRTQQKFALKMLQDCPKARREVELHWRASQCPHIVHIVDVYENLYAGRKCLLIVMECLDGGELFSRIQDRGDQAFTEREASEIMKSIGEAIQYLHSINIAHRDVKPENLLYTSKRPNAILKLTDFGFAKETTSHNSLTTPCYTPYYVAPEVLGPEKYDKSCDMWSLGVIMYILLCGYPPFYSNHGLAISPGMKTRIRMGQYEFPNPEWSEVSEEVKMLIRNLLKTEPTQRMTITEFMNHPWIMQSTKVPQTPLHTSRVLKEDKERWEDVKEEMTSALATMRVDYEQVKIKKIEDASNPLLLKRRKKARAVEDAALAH

| Ratio to Control [1] | Pho-HSP27 [1] [pg/mL] | response in phospho-HSP27 ELISA, overall ranking [1] | Ratio Compound/control [2] | Average Response HSP27 [2] [pg/mL] | Structure (SMILES) | increase in HSP-27 phosphorylation (Western blot, normalized for HSP-27 signal) [3] |
| --- | --- | --- | --- | --- | --- | --- |
| 37.2 | 836.0 | most robust response | 2.3 | 48.4 | CN(C)Cc1c(C(=O)NCCOc2ccc(C(=O)NO)cc2)oc2ccccc12 [Compound 54, Abexinostat] | – |
| 0.9 | 20.9 | – | 1.2 | 26.2 | Fc1ccccc1-c1nc2ccn(Cc3ccc(-c4ccc(C(F)(F)F)cc4C(F)(F)F)nn3)cc-2n1 [Compound 66, Tegobuvir] | – |
| 37.7 | 848.5 | most robust response | 3.4 | 39.2 | O=C(NC1CCN(CCCCC2(C(=O)NCC(F)(F)F)c3ccccc3-c3ccccc32)CC1)c1ccccc1-c1ccc(C(F)(F)F)cc1 [Compound 68, Lomitapide] | strongest increase in HSP-27 phosphorylation |
| 0.7 | 15.2 | – | 1.2 | 20.4 | Cc1cc(C(=O)Nc2cc(Nc3ccc4c(/C=C/c5ccccn5)n[nH]c4c3)ccc2F)n(C)n1 [Compound 74, Ag-13958] | – |
| 0.7 | 15.0 | – | 0.6 | 15.2 | O=C(Nc1ccc(-c2ccnc(Nc3ccc(N4CCOCC4)cc3)n2)cc1)C1CCCN1 (centres unmarked) [Compound 78, Xl-019] | – |
| 1.3 | 29.9 | – | 2.1 | 33.7 | CC(=O)Nc1nc2c(Oc3cc(-c4ccc(C(F)(F)F)cc4)ncn3)cccc2s1 [Compound 83, Amg-517] | – |
| 1.5 | 33.2 | – | 1.3 | 27.6 | O=C(O)CCn1c2c(c3ccccc31)C[C@H](NS(=O)(=O)c1ccc(F)cc1)CC2 [Compound 93, Ramatroban] | – |
| 1.1 | 24.1 | – | 0.8 | 18.6 | O=C(O)c1ccc2nc(-c3cc(Cl)cc(Cl)c3)oc2c1 [Compound 95, Tafamidis] | – |
| 1.2 | 26.2 | – | 1.2 | 26.5 | COc1ccc(-c2cc(C(F)F)nn2-c2ccc(S(N)(=O)=O)cc2)cc1F [Compound 113, Deracoxib] | – |
| 27.6 | 621.3 | most robust response | 2.3 | 47.1 | OC[C@@H](O)CN1CCN(c2ccccc2)CC1 [Levodropropizine] | – |
